In the supplement of paper PMC8967900:

Key:
Experiment in all cases: selective drug sensitivity score (sDSS, relative to normal bone marrow) (sDSS (score)); higher = more potent and effective on the cell line relative to normal bone marrow cells
Conditions in all cases: 72 h
697 = system: 697
CCRF-CEM = system: CCRF-CEM
CCRF-HSB2 = system: CCRF-HSB2
COG-LL-332h = system: COG-LL-332h
COG-LL-355h = system: COG-LL-355h
DND-41 = system: DND-41
HAL-01 = system: HAL-01
KARPAS-45 = system: KARPAS-45
KOPN-8 = system: KOPN-8
LC4-1 = system: LC4-1
MHH-CALL-2 = system: MHH-CALL-2
MHH-CALL-4 = system: MHH-CALL-4
MN-60 = system: MN-60
MOLT-16 = system: MOLT-16
NALL-1 = system: NALL-1
P12-ICHIKAWA = system: P12-ICHIKAWA
P30-OHKUBO = system: P30-OHKUBO
RPMI-8402 = system: RPMI-8402
SUP-B15 = system: SUP-B15
TMD5 = system: TMD5
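Note: ALL cell lines in 384-well plates, five doses spanning 10,000-fold, each plate scaled between vehicle and 100 µmol/L benzalkonium chloride controls, sDSS an adapted area-under-curve metric.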

| Structure (SMILES) | selective drug sensitivity score 697 | selective drug sensitivity score (CCRF-CEM) | selective drug sensitivity score (CCRF-HSB2) | selective drug sensitivity score (COG-LL-332h) | selective drug sensitivity score (COG-LL-355h) | selective drug sensitivity score (DND-41) | selective drug sensitivity score (HAL-01) | selective drug sensitivity score (KARPAS-45) | selective drug sensitivity score (KOPN-8) | selective drug sensitivity score (LC4-1) | selective drug sensitivity score (MHH-CALL-2) | selective drug sensitivity score (MHH-CALL-4) | selective drug sensitivity score (MN-60) | selective drug sensitivity score (MOLT-16) | selective drug sensitivity score (NALL-1) | selective drug sensitivity score (P12-ICHIKAWA) | selective drug sensitivity score (P30-OHKUBO) | selective drug sensitivity score (RPMI-8402) | selective drug sensitivity score (SUP-B15) | selective drug sensitivity score (TMD5) |
| --- | --- | --- | --- | --- | --- | --- | --- | --- | --- | --- | --- | --- | --- | --- | --- | --- | --- | --- | --- | --- |
| O=C(Nc1nc2cccc(-c3ccc(CN4CCS(=O)(=O)CC4)cc3)n2n1)C1CC1 [Filgotinib] (top concentration 10000 nM) | 0.06 | -1.34 | -2.54 | -1.84 | 0.96 | 1.66 | 5.66 | -1.04 | 5.46 | -1.94 | 5.36 | 2.86 | -2.64 | 4.86 | 5.86 | -1.64 | 2.56 | -2.24 | -0.64 | 0.16 |
| COc1cc(Nc2ncc(F)c(Nc3ccc4c(n3)NC(=O)C(C)(C)O4)n2)cc(OC)c1OC [Tamatinib] (top concentration 10000 nM) | 1.28 | -5.42 | 4.78 | -0.22 | -1.52 | -1.82 | -2.92 | -2.92 | -2.12 | 1.28 | -4.92 | -4.62 | -5.42 | -5.42 | -3.82 | -5.02 | 4.38 | 0.68 | -0.62 | -5.42 |
| NC(=O)/C(=C/n1cnc(-c2cc(C(F)(F)F)cc(C(F)(F)F)c2)n1)c1cncnc1 [Eltanexor] (top concentration 10000 nM) | 13.2 | 9.66 | 12 | 9.46 | 14.5 | 12.6 | 5.46 | 8.96 | 14.2 | 8.16 | 11.4 | 6.76 | 0.06 | 14.4 | 2.76 | 7.96 | 11.8 | 9.36 | 13.7 | -1.84 |
| CN1CCC(CNc2ccc3ncc(-c4cccc(OC(F)(F)F)c4)n3n2)CC1 [SGI-1776] (top concentration 10000 nM) | -0.68 | 0.52 | 3.12 | 0.22 | 1.72 | -1.18 | 1.92 | -2.08 | -0.78 | -1.08 | 1.22 | 0.32 | -3.78 | -3.28 | -2.18 | -2.98 | 0.12 | -2.68 | -0.88 | -0.98 |
| CCCCCCCCCCCCCCCCOP(=O)([O-])OCC[N+](C)(C)C [Miltefosine] (top concentration 100000 nM) | 1.46 | -0.04 | 7.26 | 0.76 | 1.36 | 2.66 | -1.34 | 2.26 | 7.56 | 7.46 | 6.96 | -1.34 | 3.26 | -1.34 | 5.26 | 6.56 | 2.26 | 1.46 | 2.36 | -1.64 |
| O=C(/C=C/c1cccc(S(=O)(=O)Nc2ccccc2)c1)NO [Belinostat] (top concentration 10000 nM) | 10.1 | 8.7 | 10.2 | 7.9 | 10.2 | 7.2 | 5.6 | 14.8 | 17.8 | 9.7 | 11 | 7.5 | 1.8 | 10.1 | 2.4 | 8.6 | 8 | 7.3 | 8.5 | 6.3 |
| CC(C)(C)Cn1c(N)nc2ccc(-c3[nH]c(C(C)(C)C)nc3-c3ccc(F)cc3)nc21 [Ralimetinib] (top concentration 10000 nM) | 5.66 | 2.26 | 1.26 | 2.56 | 7.86 | 5.36 | -0.74 | 5.36 | 4.26 | 4.76 | 1.46 | -0.84 | -0.14 | 12.6 | -0.84 | 1.86 | 4.66 | 4.26 | 7.36 | -0.74 |
| Nc1ccccc1NC(=O)c1ccc(CNC(=O)OCc2cccnc2)cc1 [Entinostat] (top concentration 10000 nM) | 8.28 | 3.78 | 3.28 | -0.62 | 1.98 | 1.28 | 2.58 | 9.48 | 11.6 | 4.48 | 8.98 | 8.88 | 1.68 | 6.58 | -0.82 | 7.58 | 5.68 | 5.08 | 7.08 | 5.38 |
| CCNC(=O)C[C@@H]1N=C(c2ccc(Cl)cc2)c2cc(OC)ccc2-n2c(C)nnc21 [Molibresib] (top concentration 10000 nM) | 7.4 | 0.8 | -0.5 | -2.4 | 1.7 | -0.9 | 2.7 | 5.3 | 10.6 | 3.7 | 8.4 | 6.9 | 6.3 | 4.9 | 3.4 | 3 | 6.4 | 1.4 | 3.2 | 5.2 |
| COc1cc(Nc2ncc3c(n2)-c2ccc(Cl)cc2C(c2c(F)cccc2OC)=NC3)ccc1C(=O)O [Alisertib] (top concentration 10000 nM) | 25 | 21.5 | 26.4 | 24.8 | 7.98 | 0.88 | 17.8 | 27.9 | 21.3 | 25.5 | 14.9 | -5.62 | -3.42 | 29.6 | 16.2 | 22.6 | 25.4 | 10.2 | 24 | 11 |
| Cc1c(-c2c(-c3ccc(F)o3)sc3ncnc(O[C@H](Cc4ccccc4OCc4ccnn4CC(F)(F)F)C(=O)O)c23)ccc(OCCN2CCN(C)CC2)c1Cl (top concentration 1000 nM) | -0.84 | -0.24 | -5.14 | -5.84 | 4.66 | -7.74 | -7.74 | -0.24 | 13.4 | -0.54 | -6.04 | -4.64 | -7.74 | 7.46 | -7.74 | -5.84 | 1.26 | -4.54 | 6.36 | -7.74 |
| Cc1ncc(Cl)cc1NCc1ccc(C(=O)N[C@@H](CC2CCCC2)C(=O)NC2CC2)s1 (top concentration 5000 nM) | -0.94 | -0.94 | 0.66 | 1.86 | 2.26 | -0.94 | 1.16 | -0.94 | 2.96 | -0.94 | -0.24 | -0.94 | -0.94 | 3.96 | -0.94 | -0.94 | -0.94 | -0.94 | 3.46 | -0.94 |
| Nc1ccccc1NC(=O)c1ccc(CNc2nccc(-c3cccnc3)n2)cc1 [Mocetinostat] (top concentration 10000 nM) | 8.84 | 5.54 | 3.94 | 7.04 | 4.24 | 7.44 | 2.14 | 8.84 | 9.24 | 9.14 | 7.74 | 8.04 | 1.34 | 9.04 | -3.16 | 6.24 | 7.54 | 6.34 | 9.64 | 1.44 |
| Cn1cc(CNCC2CCN(c3ncc(C(=O)NO)cn3)CC2)c2ccccc21 [Quisinostat] (top concentration 1000 nM) | 8.68 | 3.98 | 1.28 | 1.48 | 6.38 | 2.98 | -5.02 | 8.18 | 10.5 | 7.38 | 8.28 | 5.98 | -2.02 | 6.28 | -0.72 | 3.78 | 7.18 | 5.58 | 10.1 | 5.08 |
| CC(C)[C@@H](CS(=O)(=O)C(C)C)N1C(=O)[C@@](C)(CC(=O)O)C[C@H](c2cccc(Cl)c2)[C@H]1c1ccc(Cl)cc1 [AMG-232] (top concentration 10000 nM) | 9.06 | -7.34 | 9.26 | 9.26 | 8.76 | -8.84 | 11 | -8.34 | 10.4 | 11.3 | 11.7 | 10.9 | 3.16 | 8.06 | -8.14 | -8.24 | 8.96 | -9.14 | 16.5 | 6.76 |
| COC12C(COC(N)=O)C3=C(C(=O)C(C)=C(N)C3=O)N1CC1NC12 (stereo in doubt) [Mitomycin_C] (top concentration 10000 nM) | 2.34 | -2.86 | -2.86 | -2.86 | 0.44 | -2.86 | 0.74 | -2.86 | 4.24 | 2.34 | 1.54 | -1.66 | -2.86 | -2.86 | -2.86 | -2.86 | 2.24 | -2.86 | 1.24 | -1.96 |
| CO[C@@H]1[C@H](N(C)C(=O)c2ccccc2)C[C@H]2O[C@]1(C)n1c3ccccc3c3c4c(c5c6ccccc6n2c5c31)C(=O)NC4 [Midostaurin] (top concentration 10000 nM) | 14 | 7.06 | 11.7 | 6.26 | 4.66 | 2.46 | 3.06 | 4.06 | 12.1 | 10.6 | 3.86 | 3.66 | -1.24 | 12.5 | 5.36 | 9.76 | 14.4 | 3.66 | 8.96 | 0.66 |
| O=C(/C=C\n1cnc(-c2cc(C(F)(F)F)cc(C(F)(F)F)c2)n1)NNc1cnccn1 [Selinexor] (top concentration 10000 nM) | 12.4 | 9.38 | 14.8 | 9.68 | 11.9 | 14.6 | 9.08 | 10.9 | 17.1 | 7.78 | 7.48 | 5.18 | 3.58 | 13.9 | 2.98 | 10.1 | 9.28 | 12.3 | 16.3 | 0.38 |
